Assay [1] deals with Soybean. Nature of the assay: Increase of the dry biomass of soybean plants after seed treatment. The class given is in vivo. As to conditions: harvested 35 days after emergence, dried at 110° C., free disease conditions. An excerpt:
(§1) Treatment with fipronil or fipronil+alpha-cypermethrin under free disease conditions
Soybean was cultivated under customary conditions at Campinas (Brazil) in 2005/2006. A part of the seeds of the test plants had beforehand been treated with fipronil. Another part of the seeds of the plants had beforehand been treated with a mixture of fipronil and alpha-cypermethrin. 35 days after the emergence of the plants, the plants and their roots were harvested. The leaves and the roots were completely dried in an oven at 110° C. and then weighed.

Assay [2] concerns Corn. The experiment in a line: Increase of the dry biomass of corn plants after seed treatment. The class given is in vivo. As to conditions: harvested 37 days after emergence, dried at 110° C., free disease conditions.
From the text: as §1
Corn was cultivated under customary conditions at Campinas (Brazil) in 2005/2006. A part of the seeds of the test plants had beforehand been treated with fipronil. Another part of the seeds of the plants had beforehand been treated with a mixture of fipronil and alpha-cypermethrin. 37 days after the emergence of the plants, the plants and their roots were harvested. The leaves and the roots were completely dried in an oven at 110° C. and then weighed.

Each structure is given as a SMILES string.

Regarding `N#Cc1nn(-c2c(Cl)cc(C(F)(F)F)cc2Cl)c(N)c1[S+]([O-])C(F)(F)F` (stereo not drawn) [Fipronil, 5-amino-1-(2,6-dichloro-α,α,α-trifluoro-p-tolyl)-4-trifluoromethylsulfinylpyrazole-3-carbonitrile], in assay [1], the Dry weight leaves is on record as 13.15 and the Dry weight roots was found to be 15.6. For the same compound, in assay [2], the Dry weight leaves is 23.38 and the Dry weight roots is 41.27.
